Measurements published in US9518015B2, “EP1 receptor ligands” (LABORATORIOS DEL DR. ESTEVE, S.A., priority 2011, dated 2016).
Structures can show the parent of a compound that is named as a salt.

Legend:
[1] = molecular target: T1, human EP1 receptor (Homo sapiens, UniProt P34995); test: Test 3: Measurement of IP1 responses by HTRF, HEK-293 cells stably expressing human EP1 receptors incubated o/n, PGE2 10 nM; format: cell-based; parameters: expressed in transfected cells; conditions: for inhibition at 10 µM: HEK293, read-out: Results of Test 3 (Functional assay), % inh; for Results of Test 3 (Functional assay), % inh: at 10 μM
T1 sequence (P34995 1-402): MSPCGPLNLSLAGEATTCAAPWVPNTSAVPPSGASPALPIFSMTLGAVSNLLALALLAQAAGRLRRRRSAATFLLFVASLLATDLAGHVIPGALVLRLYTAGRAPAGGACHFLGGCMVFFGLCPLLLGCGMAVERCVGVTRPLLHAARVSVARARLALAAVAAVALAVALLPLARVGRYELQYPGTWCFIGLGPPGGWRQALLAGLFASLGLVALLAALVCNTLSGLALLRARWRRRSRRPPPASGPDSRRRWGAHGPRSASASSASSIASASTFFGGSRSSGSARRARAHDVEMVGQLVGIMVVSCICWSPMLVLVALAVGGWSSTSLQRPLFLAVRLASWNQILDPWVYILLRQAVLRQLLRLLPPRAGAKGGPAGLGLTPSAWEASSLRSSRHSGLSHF
Description: Test 3: Measurement of IP1 Responses by Homogeneous Time Resolved Fluorescence
IP1 measurements on HEK-293 cells that stably expressed human EP1 receptors were performed by using a system based on Homogeneous Time Resolved Fluorescense (HTRF) (Gabriel et al., 2003). This technology allows the direct measurement of IP1 in living cells. The principle of this assay is based on competition between IP1 produced by cells and IP1-d2 conjugate for the binding with monoclonal anti-IP1-cryptate conjugate. The HTRF IP1 kit from CisBio was used according to the manufacturer's directions. The experimental procedure was performed as stated below.
40,000 cells per well were added to 96-well culture plates in 40 μl of Optimem and incubated o/n at 37° C. Optimem was replaced by 40 μl of stimulation buffer (supplied by the kit) and compounds were then added in 20 μl of stimulation buffer and incubated at 37° C. for 15 minutes followed by 10 μl of PGE2 to a final concentration of 10 nM. After 90 minutes at 37° C., the reaction was stopped lysing the cells with a mixture of 15 μl of cryptate and 15 μl of IP1-d2 prepared in the lysis buffer supplied by the manufacturer. Plates were incubated for an additional hour at room temperature and read at 665 nm/620 nm using an UltraEvolution Plate reader (Tecan).
Antagonist percentage inhibition was calculated relating compounds activity to the 0% inhibition of the wells incubated with 10 nM PGE2 alone and 100% inhibition of the wells incubated with 10 nM PGE2 plus 10 μM of the reference antagonist.

[2] = molecular target: T1, human EP1 receptor; test: Test 1: Human EP1 receptor radioligand binding assay ([3H]-PGE2, transfected HEK-293 cell membranes); parameters: expressed in transfected cells; host or cells: HEK-293 cell membranes; conditions: for inhibition at 10 µM: read-out: Results of Test 1 (Binding assay), % inh; for Results of Test 1 (Binding assay), % inh: at 10 μM
Description: Test 1: Human EP1 Receptor Radioligand Binding Assay
To investigate binding properties of EP1 receptor ligands to human EP1 receptor, transfected HEK-293 cell membranes and [3H]-PGE2 (Perkin Elmer) were used. In 96-well plates the assay was carried out with a total reaction volume of 250 μl, containing 25 μl of membrane suspension (30 μg protein/well), 25 μl of [3H]-PGE2 (10 nM) in either absence or presence of 25 μl of either buffer or PGE2 (10 μM) for total and non-specific binding, respectively. Binding buffer contained 10 mM MES, 1 mM MgCl2 and 1 mM EDTA at pH 6.0. Plates were incubated at 25° C. for 60 minutes. After the incubation period, 200 μl of incubate were transferred to MultiScreen HTS, FB plates (Millipore), filtered and plates were washed 6 times with ice-cold 10 mM MES, 1 mM MgCl2 and 1 mM EDTA at pH 6.0. Filters were dried and counted in a MicroBeta scintillation counter (Perkin-Elmer) using EcoScint liquid scintillation cocktail.
Percentage inhibition was calculated relating compounds activity to the 0% inhibition of the wells incubated with 10 nM [3H]-PGE2 alone (total binding) and 100% inhibition of the wells incubated with 10 nM [3H]-PGE2 plus 10 μM PGE2 (non-specific binding).

[3] = molecular target: T1, human EP1 receptor; test: Test 2: Measurement of IP1 responses by HTRF, suspended HEK-293 cells stably expressing human EP1 receptors, PGE2 30 nM; format: cell-based; parameters: expressed in transfected cells; conditions: HEK293, at 10 μM, read-out: Results of Test 2 (Functional assay), % inh
Procedure, shortened: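 Suspended cells preincubated with compound for 15 min at 37 °C, then stimulated with 30 nM PGE2 for 90 min at 37 °C. IP1 quantified by competitive HTRF (665/620 nm) after lysis. Percent inhibition scaled between PGE2 alone (0%) and PGE2 plus 1 μM reference antagonist (100%).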

| SMILES | inhibition at 10 µM [1] [%] | inhibition at 10 µM [2] [%] | Results of Test 3 (Functional assay), % inh [1] | Results of Test 1 (Binding assay), % inh [2] | inhibition at 10 µM [3] [%] |
| --- | --- | --- | --- | --- | --- |
| O=C(O)c1cccc2c1CCCN2Cc1cc(Cl)ccc1OC1CCC1 [Example 178] | > 75 | > 75 |  |  |  |
| O=C([O-])c1ccnc2c1CCN2Cc1cc(Cl)ccc1OCc1ccc(F)cc1.[Na+] [Example 220] |  |  | $ (% inh > 75) | # (% inh > 75) |  |
| O=C(O)c1cccc2c1c(CO)cn2Cc1cc(F)ccc1OCc1ccc(F)cc1 [Example 149] | > 75 | > 75 |  |  |  |
| O=C([O-])c1ccnc2c1CCN2Cc1cc(Cl)ccc1OCc1ccc(F)cc1F.[Na+] [Example 217] |  |  | $ (% inh > 75) | # (% inh > 75) |  |
| O=C(O)c1cncc2c1CCCN2Cc1cc(Cl)ccc1OCc1ccc(Cl)cc1F [Example 226, Sodium 1-{5-chloro-2-[(4-chloro-2-fluorobenzyl)oxy]benzyl}-1,2,3,4-tetrahydro-1,7-naphthyridine-5-carboxylate] | > 75 | > 75 |  |  |  |
| CN(C)S(=O)(=O)NC(=O)c1cccc2c1CCCN2Cc1cc(Cl)ccc1OCc1ccc(Cl)cc1F [Example 237, 1-{5-chloro-2-[(4-chloro-2-fluorobenzyl)oxy]benzyl}-N-[(dimethylamino)sulfonyl]-1,2,3,4-tetrahydroquinoline-5-carboxamide sodium salt] | 45 to 75 | > 75 |  |  |  |
| CC(C)(C)COc1ccc(Cl)cc1Cn1ncc2c(C(=O)O)cccc21 [Example 138] | > 75 | > 75 |  |  |  |
| O=C(O)c1ccnc2c1cnn2Cc1cc(Cl)ccc1OCc1ccc(Cl)cc1F [Example 212, sodium 1-{5-chloro-2-[(4-chloro-2-fluorobenzyl)oxy]benzyl}-1H-pyrazolo[3,4-b]pyridine-4-carboxylate] | > 75 | > 75 |  |  |  |
| CC(C)COc1ccc(Cl)cc1CN1CCOc2c(C(=O)O)cccc21 [Example 196] | > 75 | > 75 |  |  |  |
| CC(C)(F)COc1ccc(Cl)cc1CN1CCc2c(C(=O)O)cccc21 [Example 166] | > 75 | > 75 |  |  |  |
| O=C(O)c1cccc2c1cnn2Cc1cc(Cl)ccc1OCc1ccc(Cl)cc1F [Example 124] | > 75 | > 75 |  |  |  |
| O=C(O)c1cccc2c1cnn2Cc1cc(Cl)ccc1OC1CCC1 [Example 137] | > 75 | > 75 |  |  |  |
| O=C(O)c1cncc2c1CCCN2Cc1cc(Cl)ccc1OCc1ccc(F)cc1F [Example 227] | > 75 | > 75 |  |  |  |
| COCc1cn(Cc2cc(Cl)ccc2OCc2ccc(Cl)cc2F)c2cccc(C(=O)O)c12 [Example 207, Sodium 1-(5-chloro-2-(4-chloro-2-fluorobenzyloxy)benzyl)-3-(methoxymethyl)-1H-indole-4-carboxylate] | > 75 | > 75 |  |  |  |
| CC(C)(F)COc1ccc(Cl)cc1CN1CCCc2c(C(=O)O)cccc21 [Example 177] | > 75 | > 75 |  |  |  |
| O=C(O)c1cccc2c1CC(=O)N2Cc1cc(Cl)ccc1OCc1ccc(Cl)cc1F [Example 208, sodium 1-(5-chloro-2-(4-chloro-2-fluorobenzyloxy)benzyl)-2-oxoindoline-4-carboxylate] | > 75 | > 75 |  |  |  |
| CC(C)(F)COc1ccc(Cl)cc1Cn1cc(CO)c2c(C(=O)O)cccc21 [Example 147] | > 75 | > 75 |  |  |  |

| SMILES | inhibition at 10 µM [1] [%] | inhibition at 10 µM [2] [%] | Results of Test 3 (Functional assay), % inh [1] | Results of Test 1 (Binding assay), % inh [2] | inhibition at 10 µM [3] [%] |
| --- | --- | --- | --- | --- | --- |
| CC(C)COc1ccc(F)cc1CN1CCOc2c(C(=O)O)cccc21 [Example 195] | > 75 | > 75 |  |  |  |
| O=C(O)c1cccc2c1OCCN2Cc1ccccc1OCc1ccc(F)cc1F [Example 122] | > 75 | > 75 |  |  |  |
| O=C(O)c1cccc2c1OCC(=O)N2Cc1cc(Br)ccc1OCc1ccc(Cl)cc1F [Example 115] | > 75 | > 75 |  |  |  |
| CC(C)(F)COc1ccc(Cl)cc1Cn1ncc2c(C(=O)O)cccc21 [Example 125] | > 75 | > 75 |  |  |  |
| O=C(O)c1cccc2c1c(CO)cn2Cc1cc(Cl)ccc1OCc1ccc(Cl)cc1F [Example 141, sodium 1-(5-chloro-2-((4-chloro-2-fluorobenzyl)oxy)benzyl)-3-(hydroxymethyl)-1H-indole-4-carboxylate] | > 75 | > 75 |  |  |  |
| CC(C)COc1ccc(Cl)cc1CN1CCc2c(C(=O)NS(C)(=O)=O)ccnc21 [Example 234, 1-(5-chloro-2-isobutoxybenzyl)-N-(methylsulfonyl)-2,3-dihydro-1H-pyrrolo[2,3-b]pyridine-4-carboxamide sodium salt] | > 75 | > 75 |  |  |  |
| O=C(O)c1ccnc2c1CCN2Cc1cc(Cl)ccc1OCc1ccc(Cl)cc1F [Example 216, sodium 1-{5-chloro-2-[(4-chloro-2-fluorobenzyl)oxy]benzyl}-2,3-dihydro-1H-pyrrolo[2,3-b]pyridine-4-carboxylate] | > 75 | > 75 |  |  |  |
| O=C(O)c1cccc2c1c(CO)cn2Cc1cc(F)ccc1OCc1ccc(Cl)cc1F [Example 146] | > 75 | > 75 |  |  |  |
| O=C(O)c1cccc2c1c(CO)cn2Cc1cc(F)ccc1OC1CCC1 [Example 148] | > 75 | > 75 |  |  |  |
| O=C(O)c1cncc2c1CCCN2Cc1ccccc1OCc1ccc(Cl)cc1F [Example 240] | > 75 | > 75 |  |  |  |
| O=C(O)c1cccc2c1c(CO)cn2Cc1cc(F)ccc1OCc1ccc(F)cc1F [Example 145] | > 75 | > 75 |  |  |  |
| O=C(O)c1cccc2c1ccn2Cc1cc(F)ccc1OCc1cc(F)c(F)c(F)c1 [Example 34, 1-(5-fluoro-2-((3,4,5-trifluorobenzyl)oxy)benzyl)-1H-indole-4-carboxylic acid] |  | 45 to 75 |  |  | > 75 |
| O=C(O)c1cccc2c1ccn2Cc1cc(C(F)(F)F)ccc1OCc1cccc(F)c1 [Example 49, 1-(2-((3-fluorobenzyl)oxy)-5-(trifluoromethyl)benzyl)-1H-indole-4-carboxylic acid] |  | 45 to 75 |  |  | > 75 |
| O=C(O)c1cccc2c1ccn2Cc1cc(Cl)ccc1OCc1ccc(F)cc1Cl [Example 12, 1-(5-chloro-2-((2-chloro-4-fluorobenzyl)oxy)benzyl)-1H-indole-4-carboxylic acid] |  | > 75 |  |  | > 75 |
| O=C(O)c1cccc2c1ccn2Cc1cc(Cl)ccc1OCc1ccc(Cl)cc1F [Example 48, 1-(5-chloro-2-((4-chloro-2-fluorobenzyl)oxy)benzyl)-1H-indole-4-carboxylic acid] |  | > 75 |  |  | > 75 |
| O=C(O)c1cccc2c1ccn2Cc1cc(F)ccc1OCc1ccc(F)cc1Cl [Example 19, 1-(2-((2-chloro-4-fluorobenzyl)oxy)-5-fluorobenzyl)-1H-indole-4-carboxylic acid] |  | 45 to 75 |  |  | > 75 |
